“Also recorded” adds a separate entry of the source. Non-standard residues stand in square brackets, D forms with d.
What was measured:
[1] = system: A549 cells; experiment: Cell viability (MTT) of A549 cells under low serum / serum deprivation; assay type: cell-based; conditions: for cytotoxicity (decrease of A549 viability) relative to comparison peptide, dose-response: various concentrations, low-serum conditions, FIG. 2A / 5A; for cytotoxicity (decrease of A549 viability) relative to comparison peptide, dose-response / induction of cell death of A549 cells: 24 hours; for cellular viability: 2 µM; for induction of cell death of A549 cells: 10 μM, serum deprivation, FIG. 1C
Procedure: (A) Karpas 1106, SU-DHL-5, SeAx and HUT-78 cells were plated at a densities of 6×10^3 in 96 well plates (100 μL total volume per well) and treated for 24 hours in a 37° C. incubator (5% CO2) with increasing concentrations of the Antp-AAC-11-LZ (363-399). 20 μL MTS reagent was then added to each well and plates were incubated for an additional 4 hours. Absorbance was measured at 490 nm using a 96-well plate reader. The extent to which the Antp-AAC-11-LZ (363-399) peptide inhibited cell proliferation was calculated as a percentage of the absorbance in each well containing the Antp-AAC-11-LZ (363-399) peptide relative to wells containing no peptide (negative control). Each bar represents the mean±s.d. from at least three independent experiments. (B) Indicated cells were plated at a densities of 4.5×10^3 in 96 well plates (100 μL total volume per well) and allowed to attach overnight in a 37° C. incubator (5% CO2). Media was removed from cells and replaced with media containing Antp-AAC-11-LZ (363-399) peptide at various concentrations (100 μL total volume per well) peptide and the plates were incubated for 24 hours. The MTT assay was then completed and data analysis was performed as described herein. […] A549 cells were plated at a densities of 4.5×10^3 in 96 well plates (100 μL total volume per well) and allowed to attach overnight in a 37° C. incubator (5% CO2). Media was removed from cells and replaced with media containing the indicated peptides at 10 μM (100 μL total volume per well) and the plates were incubated for 24 hours. The MTT assay was then completed and data analysis was performed as described herein.
(A) A549 cells were plated at a densities of 4.5×10^3 in 96 well plates (100 μL total volume per well) and allowed to attach overnight in a 37° C. incubator (5% CO2). Media was removed from cells and replaced with media containing the indicated peptides at various concentrations (100 μL total volume per well) peptide in the absence of serum and the plates were incubated for 24 hours. The MTT assay was then completed and data analysis was performed as described herein. (B) A549 or HaCat cells were plated at a densities of 4.5×10^3 in 96 well plates (100 μL total volume per well) and allowed to attach overnight in a 37° C. incubator (5% CO2). Media was removed from cells and replaced with media containing the indicated peptides at 10 μM (100 μL total volume per well) peptide in the absence of serum and the plates were incubated for 24 hours. The MTT assay was then completed and data analysis was performed as described herein.
A549 cells were plated at a densities of 4.5×10^3 in 96 well plates (100 μL total volume per well) and allowed to attach overnight in a 37° C. incubator (5% CO2). Cells were left untreated or pre-treated with 100 μM Z-VAD-FMK for 2 h. […] The MTT assay was then completed and data analysis was performed as described herein.
(A) A549 cells were plated at a densities of 4.5×10^3 in 96 well plates (100 μL total volume per well) and allowed to attach overnight in a 37° C. incubator (5% CO2). Media was removed from cells and replaced with media containing the indicated Antp-AAC-11-LZ peptides at various concentrations (100 μL total volume per well) peptide and the plates were incubated for 24 hours. The MTT assay was then completed and data analysis was performed as described herein. (B) A549 or HaCat cells were plated at a densities of 4.5×10^3 in 96 well plates (100 μL total volume per well) and allowed to attach overnight in a 37° C. incubator (5% CO2). Media was removed from cells and replaced with media containing the indicated peptides at 10 μM (100 μL total volume per well) peptide in the absence of serum and the plates were incubated for 24 hours. The MTT assay was then completed and data analysis was performed as described herein.

[2] = system: leukemic cells isolated from hMRP8-PML/RARα transgenic mice; experiment: Acute promyelocytic leukemia (APL) mouse model, survival; assay type: in vivo
Procedure: FIG. 9: Antp-AAC-11-LZ (363-399) peptide treatment of leukemic mice protects against disease progression. Mice were challenged with 10^4 leukemic cells isolated from hMRP8-PML/RARα transgenic mice, allowed to engraft for 10 d, and were then injected intraperitonaly each day for 7 consecutive days with Antp-AAC-11-LZ (363-399) peptide (1.8 mg/kg) or vehicle (normal saline solution), or subcutaneously implanted with a 21-d release pellet containing 5 mg ATRA (n=6 for each treatment). Mice were monitored for survival.
We use an established in vivo APL model based on syngenic grafts of leukemic blasts from hMRP8-PML/RARα transgenic mice, as described by Brown et al. (Brown et al., 1997). This model mimics human APL, both in its biological characteristics and its response to conventional therapeutic drugs such as all-trans retinoic acid (ATRA) and 100% of the mice die of the disease (Brown et al., 1997; Kogan et al., 2000; Lallemand-Breitenbach et al., 1999). […] leukemic cells isolated from bone marrow, spleen, or lymph nodes of leukemic hMRP8-PML/RARα transgenic mice (Brown et al., 1997) were injected into the tail vein of 6-7 week old syngeneic FVB/N mice. Establishment of leukemia was assessed by the appearance of high leukocyte and low platelet counts at around day 8 (Brown et al., 1997). Ten days after transplantation, mice implanted with leukemic cells were randomly assigned to either type of treatment (n=6). Antp-AAC-11-LZ (363-399) peptide (1.8 mg/kg) or vehicle (normal saline solution) was injected intraperitonaly each day for 7 consecutive days. Retinoic acid was administrated by subcutaneous implantation of a 21-d release pellet containing 5 mg ATRA (Innovative Research of America). Mice were then monitored for survival.

[3] = system: D3H2LN cells; experiment: Proliferation of D3H2LN cells (not showed); assay type: cell-based
[4] = system: HaCat cells; experiment: Cell viability (MTT) of nonmalignant HaCat cells in the absence of serum; assay type: cell-based; conditions: 10 μM, 24 hours, FIG. 2B / 5B
Procedure: FIG. 2: TAT-AAC-11-LZ (363-399), RI-TAT-AAC-11-LZ (363-399) and Cter-Antp-AAC-11-LZ (363-399) peptides preferentially kill tumor cells. (A) A549 cells were plated at a densities of 4.5×10^3 in 96 well plates (100 μL total volume per well) and allowed to attach overnight in a 37° C. incubator (5% CO2). Media was removed from cells and replaced with media containing the indicated peptides at various concentrations (100 μL total volume per well) peptide in the absence of serum and the plates were incubated for 24 hours. The MTT assay was then completed and data analysis was performed as described herein. (B) A549 or HaCat cells were plated at a densities of 4.5×10^3 in 96 well plates (100 μL total volume per well) and allowed to attach overnight in a 37° C. incubator (5% CO2). Media was removed from cells and replaced with media containing the indicated peptides at 10 μM (100 μL total volume per well) peptide in the absence of serum and the plates were incubated for 24 hours. […]
Viability of cells cultured in the 96-well culture plates was assessed by measuring mitochondrial dehydrogenase activity, using the colorimetric CellTiter 96® AQueous One Solution Cell Proliferation Assay (Promega), according to the manufacturer′ instructions. […] The color can then be quantified using a simple colorimetric assay. The results are read on a multiwall scanning spectrophotometer (ELISA reader).

[5] = system: human triple-negative breast cancer xenograft PDX01; experiment: Triple-negative breast cancer patient-derived xenograft PDX01 in nude mice; assay type: in vivo; conditions: 2.4 mg/kg i.p., 7 daily injections, p=0.01
Procedure: (§1) Breast cancer fragments were obtained from patients at the time of surgery, with informed written patient consent. After imaging-guided human tumor biopsies had been performed, fragments of 30 to 60 mm^3 were subcutaneously grafted in 6-week-old NMRI-nude mice (Centre-Elevage-Janvier, France), under xylasin (10 mg/kg)/ketamin (100 mg/kg) anesthesia. Mice were maintained in specific pathogen-free animal housing (Institut Universitaire d'Hematologie) and received estrogen (17 mg/mL) diluted in drinking water. Xenografts were characterized and subsequently subcutaneously transplanted from mouse to mouse. […] Two human triple-negative breast cancer (HBC) xenografts models were used in our experiments (PDX01 and PDX02). […] Following transplantation (n=6 per model) tumor growth was assessed by measuring tumor size in two dimension using a Vernier caliper. Tumor volume was calculated using the formula [3.14×long axis×short axis×short axis]/6 (Kjonniksen et al., 1989). […] Mice were weighted and the tumor size was measured by a caliper and recorded daily. Fourteen days after beginning of the treatment mice were sacrificed. The tumors, kidney, lungs, heart, liver, pancreas and spleen were taken and fixed. Paraffin-embedded sections were prepared and stained with hematoxylin and eosin for histological analysis.

[6] = system: human triple-negative breast cancer xenograft PDX02; experiment: Triple-negative breast cancer patient-derived xenograft PDX02 in nude mice; assay type: in vivo; conditions: 2.4 mg/kg i.p., 7 daily injections, p=0.01
Procedure: as §1

## Ac-RQIKIWFKKQNRRMKWKKKDFKIRLQYFARGLQVYIRQLRLALQG-NH2 [Antp-AAC-11-LZ (371-397)]
[1]
  cytotoxicity (decrease of A549 viability) relative to comparison peptide, dose-response: reduced cytotoxicity compared with the Antp-AAC-11-LZ (371-399) peptide; also recorded: significantly higher cell death compared with the Antp-AAC-11-LZ (363-399) parent peptide

## Ac-RQIKIWFKKQNRRMKWKKKDFKIRLQYFARGLQVYIRQL-NH2 [Antp-AAC-11-LZ (371-391)]
[1]
  cytotoxicity (decrease of A549 viability) relative to comparison peptide, dose-response: reduced cytotoxicity compared with the Antp-AAC-11-LZ (371-399) peptide; also recorded: significantly higher cell death compared with the Antp-AAC-11-LZ (363-399) parent peptide

## Ac-RQIKIWFKKQNRRMKWKKLQYFARGLLRLALQGKT-NH2 [Antp-AAC-11-LZ (377-399 4385-390)]
[1]
  cellular viability: 3 % of control
  cytotoxicity (decrease of A549 viability) relative to comparison peptide, dose-response: highest activity

## CC1=C(/C=C/C(C)=C/C=C/C(C)=C/C(=O)O)C(C)(C)CCC1 [ATRA, all-trans retinoic acid, reference compound]
[2]; n=6 per treatment
  mice surviving up to 67 d: one mouse
[2]; peptide 1.8 mg/kg i.p. daily for 7 days, ATRA 5 mg 21-d release pellet s.c., from day 10 after graft, n=6
  mean survival time: 56 days

## Ac-RQIKIWFKKQNRRMKWKKFARGLQVYIRQLRLALQGKT-NH2 [Antp-AAC-11-LZ (380-399)]
[1]
  cytotoxicity (decrease of A549 viability) relative to comparison peptide, dose-response: substantial but weaker cell death than the Antp-AAC-11-LZ (363-399) peptide

## Ac-YGRKKRRQRRRGGGAKLNAEKLKDFKIRLQYFARGLQVYIRQLRLALQGKT-NH2 [TAT-AAC-11-LZ (363-399)]
[3]
  proliferation at the concentrations used for migration: neither the Antp-AAC-11-LZ (363-399) or TAT-AAC-11-LZ (363-399) peptides impaired proliferation
[4]
  cytotoxicity in nonmalignant cells: largely more resistant
[1]
  cytotoxicity (decrease of A549 viability) relative to comparison peptide, dose-response: at least as effective as compared to the Antp-AAC-11-LZ (363-399) peptide

## AAC-11-LZ (363-399): AKLNAEKLKDFKIRLQYFARGLQVYIRQLRLALQGKT (SEQ ID NO: 3) (Synthetic AAC-11-LZ (363-399))
[1]
  induction of cell death of A549 cells: neither the Penetratin peptide alone, the AAC-11-LZ (363-399) peptide without the Penetratin linkage nor the mutant peptide Antp-AAC-11-LZ (363-399) L/G did induce cell death
[5]
  final mean tumor volume relative to control-treated mice: less than 35%
[6]
  final mean tumor volume relative to control-treated mice: less than 50%

## Ac-RQIKIWFKKQNRRMKWKKKDFKIRLQYFARGLQVYIRQLRLALQGKT-NH2 [Antp-AAC-11-LZ (371-399)]
[1]
  cellular viability: 33.2 % of control
  cytotoxicity (decrease of A549 viability) relative to comparison peptide, dose-response: markedly increased cytotoxicity potency compared to the parent peptide

## Ac-[dR][dR][dR][dQ][dR][dR][dK][dK][dR]G[dY]G[dT][dK]G[dQ][dL][dA][dL][dR][dL][dQ][dR][dI][dY][dV][dQ][dL]G[dR][dA][dF][dY][dQ][dL][dR][dI][dK][dF][dD][dK][dL][dK][dE][dA][dN][dL][dK][dA]-NH2 [RI-TAT-AAC-11-LZ (363-399)]
[4]
  cytotoxicity in nonmalignant cells: very little cytotoxicity
[1]
  cytotoxicity (decrease of A549 viability) relative to comparison peptide, dose-response: more effective than the TAT-AAC-11-LZ (363-399) peptide

## Antp-AAC-11-LZ (363-399) L/G: RQIKIWFKKQNRRMKWKKAKLNAEKLKDFKIRGQYFARGGQVYIRQGRLALQGKT (SEQ ID NO: 5), leucines 377, 384 and 391 mutated to glycines (Ac-RQIKIWFKKQNRRMKWKKAKLNAEKLKDFKIRGQYFARGGQVYIRQGRLALQGKT-NH2)
[1]
  induction of cell death of A549 cells: neither the Penetratin peptide alone, the AAC-11-LZ (363-399) peptide without the Penetratin linkage nor the mutant peptide Antp-AAC-11-LZ (363-399) L/G did induce cell death

— patent US10358469B2, “Methods and pharmaceutical compositions for the treatment of cancer” (INSERM (INSTITUT NATIONAL DE LA SANTÉ ET DE LA RECHERCHE …, priority 2014, dated 2019)
